Assay results taken from patent US8283361B2 (AstraZeneca AB, priority 2008, dated 2012).

Target: S. aureus GyrB ATPase (Staphylococcus aureus, UniProt P0A0K8)
Assay: biochemical
Conditions: compound at 1 μM, one value per test if tested more than once; for inhibition at 1 µM: read-out: % Inhibition of S. aureus GyrB ATPase; for % Inhibition of S. aureus GyrB ATPase: 1 µM
Summary of the method: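 IC50 values derive from 10-point titrations of compound (in DMSO). Phosphate formed from 250 μM ATP was quantified by acidic molybdate/malachite green after quenching.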

S. aureus GyrB ATPase, sequence (P0A0K8 whole entry): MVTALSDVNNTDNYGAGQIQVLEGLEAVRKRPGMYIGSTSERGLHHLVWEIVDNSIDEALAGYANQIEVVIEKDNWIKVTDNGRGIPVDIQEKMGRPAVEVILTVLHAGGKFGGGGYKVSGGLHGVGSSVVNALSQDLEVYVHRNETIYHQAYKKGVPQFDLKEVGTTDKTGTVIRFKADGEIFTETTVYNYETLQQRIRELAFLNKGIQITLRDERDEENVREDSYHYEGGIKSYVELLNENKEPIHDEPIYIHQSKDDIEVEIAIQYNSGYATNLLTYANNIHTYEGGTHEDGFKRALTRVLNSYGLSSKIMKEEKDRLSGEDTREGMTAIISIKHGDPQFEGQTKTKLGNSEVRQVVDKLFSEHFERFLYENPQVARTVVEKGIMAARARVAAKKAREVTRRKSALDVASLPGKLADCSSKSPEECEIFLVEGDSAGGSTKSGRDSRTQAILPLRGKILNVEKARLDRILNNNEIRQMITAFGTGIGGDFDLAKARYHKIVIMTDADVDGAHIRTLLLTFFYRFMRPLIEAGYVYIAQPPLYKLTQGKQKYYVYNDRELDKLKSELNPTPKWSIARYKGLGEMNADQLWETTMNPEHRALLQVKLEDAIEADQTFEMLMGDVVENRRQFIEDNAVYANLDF
S. aureus GyrB ATPase, sequence (P0AES4 whole entry, further chain): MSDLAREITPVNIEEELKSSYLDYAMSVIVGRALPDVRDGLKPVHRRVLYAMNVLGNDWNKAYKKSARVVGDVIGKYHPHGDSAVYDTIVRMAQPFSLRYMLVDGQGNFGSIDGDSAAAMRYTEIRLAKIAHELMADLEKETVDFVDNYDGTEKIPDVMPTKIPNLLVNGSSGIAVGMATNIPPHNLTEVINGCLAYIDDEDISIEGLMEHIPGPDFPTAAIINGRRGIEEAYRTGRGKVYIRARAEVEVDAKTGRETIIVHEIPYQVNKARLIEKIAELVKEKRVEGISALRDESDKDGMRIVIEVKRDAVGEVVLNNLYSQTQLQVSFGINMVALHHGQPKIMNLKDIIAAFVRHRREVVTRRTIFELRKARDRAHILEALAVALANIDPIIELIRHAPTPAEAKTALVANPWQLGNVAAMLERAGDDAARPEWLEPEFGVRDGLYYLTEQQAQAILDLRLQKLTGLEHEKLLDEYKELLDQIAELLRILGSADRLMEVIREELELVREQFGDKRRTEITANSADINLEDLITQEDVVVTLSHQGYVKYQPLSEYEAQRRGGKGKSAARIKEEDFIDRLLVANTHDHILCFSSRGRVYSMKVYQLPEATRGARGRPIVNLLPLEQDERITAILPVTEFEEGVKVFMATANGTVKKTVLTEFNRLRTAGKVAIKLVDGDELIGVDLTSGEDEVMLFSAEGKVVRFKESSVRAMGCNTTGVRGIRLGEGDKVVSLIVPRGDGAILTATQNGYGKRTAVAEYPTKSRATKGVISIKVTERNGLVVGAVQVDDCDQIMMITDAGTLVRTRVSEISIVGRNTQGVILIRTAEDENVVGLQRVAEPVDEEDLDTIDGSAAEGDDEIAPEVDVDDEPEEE

SMILES | inhibition at 1 µM [%] | % Inhibition of S. aureus GyrB ATPase [%]
CCNC(=O)Nc1cc(-c2nc(C(F)(F)F)cs2)c(-c2ccc3c(c2)c(=O)c(C(=O)O)cn3[C@H]2CNC[C@@H]2O)cn1 (relative stereo) [Example 310, trans 6-(6-(3-ethylureido)-4-(4-(trifluoromethyl)thiazol-2-yl)pyridin-3-yl)-1-(4-hydroxypyrrolidin-3-yl)-4-oxo-1,4-dihydroquinoline-3-carboxylic acid] | 106 | 
CCNC(=O)Nc1cc(-c2nc(C(F)(F)F)cs2)c(-c2ccc3c(=O)c(C(=O)O)cn(C)c3c2)cn1 [Example 22, 7-(6-(3-Ethylureido)-4(4-(trifluoromethyl)thiazol-2-yl)pyridin-3-yl)-1-methyl-4-oxo-1,4-dihydroquinoline-3-carboxylic acid] | 99 | 
CCCNC(=O)Nc1cc(-c2nc(C(F)(F)F)cs2)c(-c2ccc3c(c2)c(=O)c(C(=O)NCCO)cn3CCN(C)C)cn1 [Example 203, 1-(2-(dimethylamino)ethyl)-N-(2-hydroxyethyl)-4-oxo-6-(6-(3-propylureido)-4-(4-(trifluoromethyl)thiazol-2-yl)pyridin-3-yl)-1,4-dihydroquinoline-3-carboxamide] | 87 | 
CCCNC(=O)Nc1cc(-c2nc(C(F)(F)F)cs2)c(-c2ccc3c(c2)c(=O)c(C(=O)O)cn3C2CCOCC2)cn1 [Example 192, 4-oxo-6-(6-(3-propylureido)-4-(4-(trifluoromethyl)thiazol-2-yl)pyridin-3-yl)-1-(tetrahydro-2H-pyran-4-yl)-1,4-dihydroquinoline-3-carboxylic acid] | 92 | 
CCCNC(=O)Nc1cc(-c2nc(C(F)(F)F)cs2)c(-c2ccc3c(c2)c(=O)c(C(=O)N2CCN(C)CC2)cn3C2CN(C)C2)cn1 [Example 172, 1-(5-(1-(1-methylazetidin-3-yl)-3-(4-methylpiperazine-1-carbonyl)-4-oxo-1,4-dihydroquinolin-6-yl)-4-(4-(trifluoromethyl)thiazol-2-yl)pyridin-2-yl)-3-propylurea] | 107 | 
CCNC(=O)Nc1cc(-c2nc(C(F)(F)F)cs2)c(-c2ccc3c(c2)c(=O)c(C(=O)N2CCN(CCO)CC2)cn3C(COC)COC)cn1 [Example 141, 1-{5-[1-(1,3-dimethoxypropan-2-yl)-3-{[4-(2-hydroxyethyl)piperazin-1-yl]carbonyl}-4-oxo-1,4-dihydroquinolin-6-yl]-4-[4-(trifluoromethyl)-1,3-thiazol-2-yl]pyridin-2-yl}-3-ethylurea] | 97 | 
CCNC(=O)Nc1cc(-c2nc(C(F)(F)F)cs2)c(-c2ccc3c(c2)c(=O)c(C(=O)O)cn3[C@H]2CCCN(CCS(C)(=O)=O)C2)cn1 [Example 280, (S)-ethyl 6-(6-(3-ethylureido)-4-(4-(trifluoromethyl)thiazol-2-yl)pyridin-3-yl)-1-(1-(2-(methylsulfonyl)ethyl)piperidin-3-yl)-4-oxo-1,4-dihydroquinoline-3-carboxylic acid] | 103 | 
CCNC(=O)Nc1cc(-c2nc(C(F)(F)F)cs2)c(-c2ccc3c(=O)c(C(=O)NCCCO)cn(CCO)c3c2)cn1 [Example 365, 7-{6-[(ethylcarbamoyl)amino]-4-[4-(trifluoromethyl)-1,3-thiazol-2-yl]pyridin-3-yl}-1-(2-hydroxyethyl)-N-(3-hydroxypropyl)-4-oxo-1,4-dihydroquinoline-3-carboxamide] | 99 | 
CCNC(=O)Nc1cc(-c2nc(C(F)(F)F)cs2)c(-c2ccc3c(=O)c(C(=O)NCCN4CCOCC4)cn(CC)c3c2)cn1 [Example 333, 1-Ethyl-7-{6-[(ethylcarbamoyl)amino]-4-[4-(trifluoromethyl)-1,3-thiazol-2-yl]pyridin-3-yl}-N-[2-(morpholin-4-yl)ethyl]-4-oxo-1,4-dihydroquinoline-3-carboxamide] | 106 | 
CCCNC(=O)Nc1cc(-c2nc(C(F)(F)F)cs2)c(-c2ccc3c(c2)c(=O)c(C(=O)N2CCN(C)CC2)cn3CCN(C)C)cn1 [Example 156, 1-(5-(1-(2-(dimethylamino)ethyl)-3-(4-methylpiperazine-1-carbonyl)-4-oxo-1,4-dihydroquinolin-6-yl)-4-(4-(trifluoromethyl)thiazol-2-yl)pyridin-2-yl)-3-propylurea] | 105 | 
CCCNC(=O)Nc1cc(-c2nc(C(F)(F)F)cs2)c(-c2ccc3c(c2)c(=O)c(C(=O)N2CCN(S(C)(=O)=O)CC2)cn3C2CN(C)C2)cn1 [Example 170, 1-(5-(1-(1-methylazetidin-3-yl)-3-(4-(methylsulfonyl)piperazine-1-carbonyl)-4-oxo-1,4-dihydroquinolin-6-yl)-4-(4-(trifluoromethyl)thiazol-2-yl)pyridin-2-yl)-3-propylurea] | 102 | 
CCNC(=O)Nc1cc(-c2nc(C(F)(F)F)cs2)c(-c2ccc3c(=O)c(C(=O)NC)cn(CC(C)C)c3c2)cn1 [Example 341, 7-{6-[(ethylcarbamoyl)amino]-4-[4-(trifluoromethyl)-1,3-thiazol-2-yl]pyridin-3-yl}-N-methyl-1-(2-methylpropyl)-4-oxo-1,4-dihydroquinoline-3-carboxamide] | 99 | 
CCNC(=O)Nc1cc(-c2nc(C(F)(F)F)cs2)c(-c2ccc3c(c2)c(=O)c(C(=O)O)cn3[C@H](CO)CC(C)C)cn1 [Example 95, (S)-6-(6-(3-ethylureido)-4-(4-(trifluoromethyl)thiazol-2-yl)pyridin-3-yl)-1-(1-hydroxy-4-methylpentan-2-yl)-4-oxo-1,4-dihydroquinoline-3-carboxylic acid] |  | 109
CCNC(=O)Nc1cc(-c2nc(C(F)(F)F)cs2)c(-c2ccc3c(c2)c(=O)c(C(=O)NCCCO)cn3C2CC2)cn1 [Example 147, 1-cyclopropyl-6-(6-(3-ethylureido)-4-(4-(trifluoromethyl)thiazol-2-yl)pyridin-3-yl)-N-(3-hydroxypropyl)-4-oxo-1,4-dihydroquinoline-3-carboxamide] | 102 | 
COCCn1cc(C(=O)NCCO)c(=O)c2cc(-c3cnc(NC(=O)NC(C)C)cc3-c3nc(C(F)(F)F)cs3)ccc21 [Example 208, N-(2-hydroxyethyl)-6-(6-(3-isopropylureido)-4-(4-(trifluoromethyl)thiazol-2-yl)pyridin-3-yl)-1-(2-methoxyethyl)-4-oxo-1,4-dihydroquinoline-3-carboxamide] | 97 | 
CCNC(=O)Nc1cc(-c2nc(C(F)(F)F)cs2)c(-c2ccc3c(=O)c(C(=O)NCCN4CCOCC4)cn(CCO)c3c2)cn1 [Example 367, 7-{6-[(ethylcarbamoyl)amino]-4-[4-(trifluoromethyl)-1,3-thiazol-2-yl]pyridin-3-yl}-1-(2-hydroxyethyl)-N-[2-(morpholin-4-yl)ethyl]-4-oxo-1,4-dihydroquinoline-3-carboxamide] | 100 | 
CCNC(=O)Nc1cc(-c2nc(C(F)(F)F)cs2)c(-c2ccc3c(c2)c(=O)c(C(=O)N2CCN(C(C)=O)CC2)cn3C(COC)COC)cn1 [Example 144, 1-(5-{3-[(4-acetylpiperazin-1-yl)carbonyl]-1-(1,3-dimethoxypropan-2-yl)-4-oxo-1,4-dihydroquinolin-6-yl}-4-[4-(trifluoromethyl)-1,3-thiazol-2-yl]pyridin-2-yl)-3-ethylurea] | 94 | 
CCNC(=O)Nc1cc(-c2nc(C(F)(F)F)cs2)c(-c2ccc3c(c2)c(=O)c(C(=O)N2CCN(C)CC2)cn3CCN(C)C)cn1 [Example 155, 1-(5-(1-(2-(dimethylamino)ethyl)-3-(4-methylpiperazine-1-carbonyl)-4-oxo-1,4-dihydroquinolin-6-yl)-4-(4-(trifluoromethyl)thiazol-2-yl)pyridin-2-yl)-3-ethylurea] | 94 | 
CCCNC(=O)Nc1cc(-c2nc(C(F)(F)F)cs2)c(-c2ccc3c(c2)c(=O)c(C(=O)NCCN(C)C)cn3CCN(C)C)cn1 [Example 219, N,1-bis(2-(dimethylamino)ethyl)-4-oxo-6-(6-(3-propylureido)-4-(4-(trifluoromethyl)thiazol-2-yl)pyridin-3-yl)-1,4-dihydroquinoline-3-carboxamide] | 86 | 
CCNC(=O)Nc1cc(-c2nc(C(F)(F)F)cs2)c(-c2ccc3c(c2)c(=O)c(C(=O)O)cn3[C@H](CO)Cc2ccccc2)cn1 [Example 74, (S)-6-(6-(3-ethylureido)-4-(4-(trifluoromethyl)thiazol-2-yl)pyridin-3-yl)-1-(1-hydroxy-3-phenylpropan-2-yl)-4-oxo-1,4-dihydroquinoline-3-carboxylic acid] | 103 | 
CCNC(=O)Nc1cc(-c2nc(C(F)(F)F)cs2)c(-c2ccc3c(c2)c(=O)c(C(=O)O)cn3[C@H](CO)C(C)C)cn1 [Example 82, 6-{6-[(ethylcarbamoyl)amino]-4-[4-(trifluoromethyl)-1,3-thiazol-2-yl]pyridin-3-yl}-1-[(1S)-1-(hydroxymethyl)-2-methylpropyl]-4-oxo-1,4-dihydroquinoline-3-carboxylic acid] | 111 | 
CCNC(=O)Nc1cc(-c2nc(C(F)(F)F)cs2)c(-c2ccc3c(c2)c(=O)c(C(=O)O)cn3CCOC)cn1 [Example 1, 6-(6-(3-Ethylureido)-4-(4-(trifluoromethyl)thiazol-2-yl)pyridin-3-yl)-1-(2-methoxyethyl)-4-oxo-1,4-dihydroquinoline-3-carboxylic acid] | 100 | 104
CC(C)NC(=O)Nc1cc(-c2nc(C(F)(F)F)cs2)c(-c2ccc3c(c2)c(=O)c(C(=O)O)cn3C2CCOCC2)cn1 [Example 199, 6-(6-(3-isopropylureido)-4-(4-(trifluoromethyl)thiazol-2-yl)pyridin-3-yl)-4-oxo-1-(tetrahydro-2H-pyran-4-yl)-1,4-dihydroquinoline-3-carboxylic acid] | 103 | 
CCNC(=O)Nc1cc(-c2nc(-c3ccccc3)cs2)c(-c2cc3c4c(c2)c(=O)c(C(=O)O)cn4CCO3)cn1 [Example 17, 9-(6-(3-ethylureido)-4-(4-phenylthiazol-2-yl)pyridin-3-yl)-7-oxo-3,7-dihydro-2H-[1,4]oxazino[2,3,4-ij]quinoline-6-carboxylic acid] | 103 | 
